Results as given in ChEMBL document CHEMBL4130457, “Discovery of AZD-2098 and AZD-1678, Two Potent and Bioavailable CCR4 Receptor Antagonists” (ACS Med Chem Lett, 2017).
In brackets after ≈: the same amount, converted by molar mass. Activity calls are given as the source filed them. The rule behind the calls is not given here.

Assays:
[1] = Protein binding in human plasma; format: ADME, cell-free; details: read-out: PPB (converted)
[2] = Lipophilicity, log D of the compound; format: physicochemical; details: octanol/water
[3] = Solubility of the compound; format: physicochemical
[4] = test system: Hepatocyte; experiment: Stability in human hepatocytes assessed per million cells
[5] = Antagonist activity at rat CCR4
[6] = biological target: T1, C-C chemokine receptor type 4 (Mus musculus, UniProt P51680); experiment: Antagonist activity at mouse CCR4; format: functional
T1 sequence (P51680 whole entry): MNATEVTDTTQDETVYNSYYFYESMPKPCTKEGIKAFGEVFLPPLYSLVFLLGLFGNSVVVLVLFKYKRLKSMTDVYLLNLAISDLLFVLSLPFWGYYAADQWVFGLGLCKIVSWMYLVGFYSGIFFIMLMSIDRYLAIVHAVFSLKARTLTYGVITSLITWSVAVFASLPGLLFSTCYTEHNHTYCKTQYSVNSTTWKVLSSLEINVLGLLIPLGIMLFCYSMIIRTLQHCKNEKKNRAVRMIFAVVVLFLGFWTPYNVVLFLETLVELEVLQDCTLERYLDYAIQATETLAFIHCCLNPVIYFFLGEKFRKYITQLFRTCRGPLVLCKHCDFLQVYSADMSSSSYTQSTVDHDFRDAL

[7] = biological target: T2, C-C chemokine receptor type 4 (Homo sapiens, UniProt P51679); experiment: Antagonist activity at recombinant human CCR4 expressed in CHO-K1 cells assessed as inhibition of CCL22 induced Ca2+ mobilization after 2 hrs by FMAT based fluorescence assay; format: functional, cell-based
T2 sequence (P51679 whole entry): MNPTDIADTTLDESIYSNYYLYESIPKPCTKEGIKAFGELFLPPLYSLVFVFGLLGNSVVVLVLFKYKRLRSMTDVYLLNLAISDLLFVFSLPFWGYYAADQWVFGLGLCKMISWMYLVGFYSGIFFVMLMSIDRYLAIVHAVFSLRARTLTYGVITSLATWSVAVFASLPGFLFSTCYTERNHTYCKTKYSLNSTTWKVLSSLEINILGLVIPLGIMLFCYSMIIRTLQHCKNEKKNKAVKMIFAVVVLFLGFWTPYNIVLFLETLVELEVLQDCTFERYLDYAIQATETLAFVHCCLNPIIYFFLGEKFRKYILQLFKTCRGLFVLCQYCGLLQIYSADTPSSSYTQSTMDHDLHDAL

[8] = biological target: T3, C-X-C chemokine receptor type 1 (Homo sapiens) (UniProt P25024); experiment: Antagonist activity at CXCR1 (unknown origin) at 10 uM; format: functional
T3 sequence (whole entry): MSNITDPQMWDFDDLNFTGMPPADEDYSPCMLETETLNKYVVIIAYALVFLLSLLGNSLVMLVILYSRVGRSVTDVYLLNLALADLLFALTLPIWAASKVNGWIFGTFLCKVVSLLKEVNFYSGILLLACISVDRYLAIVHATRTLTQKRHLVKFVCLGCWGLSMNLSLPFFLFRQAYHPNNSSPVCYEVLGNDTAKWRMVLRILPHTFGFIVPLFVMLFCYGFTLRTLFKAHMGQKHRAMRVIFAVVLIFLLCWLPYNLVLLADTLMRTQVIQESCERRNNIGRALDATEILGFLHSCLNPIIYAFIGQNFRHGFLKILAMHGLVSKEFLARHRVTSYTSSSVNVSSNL

[9] = biological target: T4, C-X-C chemokine receptor type 2 (Homo sapiens) (UniProt P25025); experiment: Antagonist activity at CXCR2 (unknown origin) at 10 uM; format: functional
T4 sequence (whole entry): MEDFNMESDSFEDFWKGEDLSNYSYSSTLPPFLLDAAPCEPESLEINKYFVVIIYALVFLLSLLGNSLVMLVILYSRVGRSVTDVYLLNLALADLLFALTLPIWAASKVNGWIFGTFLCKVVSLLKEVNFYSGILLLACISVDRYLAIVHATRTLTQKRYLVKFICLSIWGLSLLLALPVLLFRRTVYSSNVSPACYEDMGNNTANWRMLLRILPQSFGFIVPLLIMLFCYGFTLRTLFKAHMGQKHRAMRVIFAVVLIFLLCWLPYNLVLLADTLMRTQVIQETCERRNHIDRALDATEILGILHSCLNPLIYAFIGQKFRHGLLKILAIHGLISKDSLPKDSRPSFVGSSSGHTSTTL

[10] = biological target: T5, C-C chemokine receptor type 1 (Homo sapiens) (UniProt P32246); experiment: Antagonist activity at CCR1 (unknown origin) at 10 uM; format: functional
T5 sequence (whole entry): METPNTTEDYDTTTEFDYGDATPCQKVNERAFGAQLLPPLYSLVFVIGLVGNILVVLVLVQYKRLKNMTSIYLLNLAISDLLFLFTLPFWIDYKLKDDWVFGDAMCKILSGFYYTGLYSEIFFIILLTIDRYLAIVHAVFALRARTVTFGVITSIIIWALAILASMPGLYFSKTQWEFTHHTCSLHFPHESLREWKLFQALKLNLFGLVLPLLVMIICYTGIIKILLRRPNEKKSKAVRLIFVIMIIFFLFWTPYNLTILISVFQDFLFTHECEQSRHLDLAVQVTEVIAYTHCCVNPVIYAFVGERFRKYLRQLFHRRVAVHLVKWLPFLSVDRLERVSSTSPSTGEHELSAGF

[11] = biological target: C-C chemokine receptor type 2 (Homo sapiens) (UniProt P41597); experiment: Antagonist activity at CCR2b (unknown origin) at 10 uM
Chain of C-C chemokine receptor type 2 (Homo sapiens) (P41597 whole entry, looked up): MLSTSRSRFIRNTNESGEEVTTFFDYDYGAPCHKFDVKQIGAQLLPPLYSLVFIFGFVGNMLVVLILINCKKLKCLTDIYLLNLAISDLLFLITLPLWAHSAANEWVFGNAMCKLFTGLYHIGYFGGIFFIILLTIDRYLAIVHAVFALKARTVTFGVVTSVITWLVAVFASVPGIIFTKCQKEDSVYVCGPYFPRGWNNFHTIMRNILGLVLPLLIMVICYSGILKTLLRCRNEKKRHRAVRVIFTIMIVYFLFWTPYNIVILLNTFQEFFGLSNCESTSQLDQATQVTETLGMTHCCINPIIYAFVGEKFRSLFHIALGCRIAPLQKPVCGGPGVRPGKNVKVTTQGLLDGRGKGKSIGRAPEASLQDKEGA

[12] = biological target: C-C chemokine receptor type 5 (Homo sapiens) (UniProt P51681); experiment: Antagonist activity at CCR5 (unknown origin) at 10 uM; format: functional
Chain of C-C chemokine receptor type 5 (Homo sapiens) (P51681 whole entry, looked up): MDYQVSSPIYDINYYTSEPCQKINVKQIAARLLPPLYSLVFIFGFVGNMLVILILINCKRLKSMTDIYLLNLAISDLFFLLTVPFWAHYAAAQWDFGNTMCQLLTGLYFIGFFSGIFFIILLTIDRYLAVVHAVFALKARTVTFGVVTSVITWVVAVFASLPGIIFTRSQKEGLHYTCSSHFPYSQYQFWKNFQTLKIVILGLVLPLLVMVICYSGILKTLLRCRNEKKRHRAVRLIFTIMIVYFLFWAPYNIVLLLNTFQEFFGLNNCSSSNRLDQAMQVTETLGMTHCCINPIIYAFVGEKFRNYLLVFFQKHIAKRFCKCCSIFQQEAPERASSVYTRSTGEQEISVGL

[13] = biological target: T6, C-C chemokine receptor type 7 (Homo sapiens) (UniProt P32248); experiment: Antagonist activity at CCR7 (unknown origin) at 10 uM; format: functional
T6 sequence (whole entry): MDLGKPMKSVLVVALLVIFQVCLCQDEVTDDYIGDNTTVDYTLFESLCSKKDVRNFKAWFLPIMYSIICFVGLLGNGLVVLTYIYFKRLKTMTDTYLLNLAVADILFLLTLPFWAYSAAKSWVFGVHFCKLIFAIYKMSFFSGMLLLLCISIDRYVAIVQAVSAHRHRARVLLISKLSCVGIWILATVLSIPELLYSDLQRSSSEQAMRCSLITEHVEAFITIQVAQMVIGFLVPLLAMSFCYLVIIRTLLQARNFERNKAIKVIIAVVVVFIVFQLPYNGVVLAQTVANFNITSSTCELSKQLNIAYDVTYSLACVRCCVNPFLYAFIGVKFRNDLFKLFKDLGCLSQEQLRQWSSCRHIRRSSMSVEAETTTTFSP

[14] = biological target: C-C chemokine receptor type 8 (Homo sapiens) (UniProt P51685); experiment: Antagonist activity at CCR8 (unknown origin) at 10 uM; format: functional
Chain of C-C chemokine receptor type 8 (Homo sapiens) (P51685 whole entry): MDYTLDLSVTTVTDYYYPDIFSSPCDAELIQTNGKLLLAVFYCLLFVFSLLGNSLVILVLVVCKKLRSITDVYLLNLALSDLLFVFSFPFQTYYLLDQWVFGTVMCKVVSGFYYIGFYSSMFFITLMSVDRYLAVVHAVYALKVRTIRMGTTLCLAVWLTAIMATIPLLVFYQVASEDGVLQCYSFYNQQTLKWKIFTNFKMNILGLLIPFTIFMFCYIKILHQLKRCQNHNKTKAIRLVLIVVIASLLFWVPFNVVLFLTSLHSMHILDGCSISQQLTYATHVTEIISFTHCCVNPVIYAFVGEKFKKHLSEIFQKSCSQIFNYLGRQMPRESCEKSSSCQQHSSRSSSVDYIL

[15] = Lipophilicity, log P of the compound; format: physicochemical; details: octanol/water
[16] = biological target: T7, C-C chemokine receptor type 4 (Canis lupus familiaris, UniProt Q8MJW8); experiment: Antagonist activity at dog CCR4
T7 sequence (Q8MJW8 whole entry): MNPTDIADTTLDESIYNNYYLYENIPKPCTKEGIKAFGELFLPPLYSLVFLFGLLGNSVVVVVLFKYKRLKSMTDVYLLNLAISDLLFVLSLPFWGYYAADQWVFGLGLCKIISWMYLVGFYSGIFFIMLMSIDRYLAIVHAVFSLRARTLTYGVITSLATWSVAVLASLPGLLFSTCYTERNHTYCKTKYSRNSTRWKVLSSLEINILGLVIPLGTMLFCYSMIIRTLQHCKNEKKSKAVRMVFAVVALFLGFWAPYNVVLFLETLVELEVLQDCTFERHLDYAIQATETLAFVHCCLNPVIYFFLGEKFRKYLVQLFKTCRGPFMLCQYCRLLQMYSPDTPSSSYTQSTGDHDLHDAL

[17] = Clearance in rat at 9 umol/kg, po or 3 umol/kg, iv; format: ADME, organism-based; details: in vivo
[18] = Clearance in dog at 9 umol/kg, po or 3 umol/kg, iv; format: ADME, organism-based, Canis lupus familiaris; details: in vivo
[19] = Volume of distribution at steady state in rat at 9 umol/kg, po or 3 umol/kg, iv; format: ADME, organism-based; details: in vivo, read-out: Vdss
[20] = Volume of distribution at steady state in dog at 9 umol/kg, po or 3 umol/kg, iv; format: ADME, organism-based, Canis lupus familiaris; details: in vivo, read-out: Vdss
[21] = Half life in rat at 9 umol/kg, po or 3 umol/kg, iv; format: ADME, organism-based; details: in vivo
[22] = Half life in dog at 9 umol/kg, po or 3 umol/kg, iv; format: ADME, organism-based, Canis lupus familiaris; details: in vivo
[23] = Oral bioavailability in rat at 9 umol/kg; format: ADME, organism-based; details: in vivo
[24] = Oral bioavailability in dog at 9 umol/kg; format: ADME, organism-based, Canis lupus familiaris; details: in vivo
[25] = biological target: T2, C-C chemokine receptor type 4; experiment: Antagonist activity at human CCR4 expressed in HEK cells coexpressing CD4+ assessed as inhibition of CCL22 induced Ca2+ mobilization; format: functional, cell-based
[26] = biological target: T8, C-C chemokine receptor type 4 (Homo sapiens) (UniProt P51679); experiment: Agonist activity at CCR4 (unknown origin) up to 10 uM; format: functional
T8 sequence (whole entry): T2 sequence (P51679 whole entry)

[27] = Volume of distribution at steady state in rat; format: ADME, organism-based; details: in vivo, read-out: Vdss
[28] = Volume of distribution at steady state in mouse; format: ADME, organism-based; details: in vivo, read-out: Vdss
[29] = Oral bioavailability in rat; format: ADME, organism-based; details: in vivo
[30] = Oral bioavailability in mouse; format: ADME, organism-based; details: in vivo
[31] = Protein binding in rat plasma; format: ADME, cell-free; details: read-out: PPB (converted)
[32] = Protein binding in mouse plasma; format: ADME, cell-free; details: read-out: PPB (converted)

**Q.** With COc1nc(F)cnc1NS(=O)(=O)c1cccc(Cl)c1Cl as the compound, how does the fraction unbound [1] read?
**A.** 0.006

**Q.** And the logD [2]?
**A.** 0.6

**Q.** What about the solubility [3] of the same compound?
**A.** 1300 µg/mL (≈ 3690 µM)

**Q.** And the Stability [4]?
**A.** < 1 uL/ml

**Q.** And the pIC50 [5]?
**A.** 9

**Q.** And the IC50 [6]?
**A.** 1 nM

**Q.** And the IC50 [7]?
**A.** 2.51 nM

**Q.** What about the Activity [8] of the same compound?
**A.** inactive

**Q.** What about the Activity [9] of the same compound?
**A.** inactive

**Q.** And the Activity [10]?
**A.** inactive

**Q.** What about the Activity [11] of the same compound?
**A.** inactive

**Q.** What about the Activity [12] of the same compound?
**A.** inactive

**Q.** And the Activity [13]?
**A.** inactive

**Q.** And the Activity [14]?
**A.** inactive

**Q.** And the logP [15]?
**A.** 3.1

**Q.** What about the IC50 [16] of the same compound?
**A.** 3.16 nM

**Q.** And the clearance [17]?
**A.** 2.3 mL/min/kg

**Q.** And the clearance [18]?
**A.** 3.7 mL/min/kg

**Q.** And the Vd [19]?
**A.** 0.2 L/kg

**Q.** What about the Vd [20] of the same compound?
**A.** 0.2 L/kg

**Q.** What about the half-life [21] of the same compound?
**A.** 2.5 h

**Q.** And the half-life [22]?
**A.** 0.5 h

**Q.** And the bioavailability [23]?
**A.** 100%

**Q.** And the bioavailability [24]?
**A.** 100%

**Q.** And the IC50 [25]?
**A.** 3.98 nM

**Q.** And the Activity [26]?
**A.** inactive

**Q.** For COc1nc(Br)cnc1NS(=O)(=O)c1ccc(Cl)s1, which fraction unbound [1] is on record?
**A.** < 0.001

**Q.** What about the logD [2] of the same compound?
**A.** 1.1

**Q.** And the solubility [3]?
**A.** 340 µg/mL (≈ 884 µM)

**Q.** What about the Vd [27] of the same compound?
**A.** 0.1 L/kg

**Q.** And the Vd [28]?
**A.** 0.1 L/kg

**Q.** And the bioavailability [29]?
**A.** 45%

**Q.** What about the bioavailability [30] of the same compound?
**A.** 86%

**Q.** And the pIC50 [5]?
**A.** 8.3

**Q.** What about the IC50 [6] of the same compound?
**A.** 5.01 nM

**Q.** And the fraction unbound [31]?
**A.** 0.0015

**Q.** And the fraction unbound [32]?
**A.** 0.033

**Q.** What about the IC50 [7] of the same compound?
**A.** 63.1 nM

**Q.** What about the Activity [8] of the same compound?
**A.** inactive

**Q.** And the Activity [9]?
**A.** inactive

**Q.** What about the Activity [10] of the same compound?
**A.** inactive

**Q.** What about the Activity [11] of the same compound?
**A.** inactive

**Q.** And the Activity [12]?
**A.** inactive

**Q.** What about the Activity [13] of the same compound?
**A.** inactive

**Q.** And the Activity [14]?
**A.** inactive
